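Tested at 5 concentrations; 48 h exposure; 96-well plates; endpoints linearly interpolated, else capped at highest concentration. Abbreviation: GI50, concentration required for 50% inhibition of growth. TGI is the concentration that stops growth completely.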 Where a SMILES comes first, the peptide text is derived from it. Bridges are numbered along the chain shown (N, C = ends).
Legend:
Experiment in all cases: growth of human tumour cells (NCI), 48 h
[1] = system: HT29 colon
[2] = system: MOLT-4 leukemia
[3] = system: IGROV1 ovarian
[4] = system: SK-MEL-2 melanoma
[5] = system: OVCAR-5 ovarian
[6] = system: A498 renal
[7] = system: SK-MEL-28 melanoma
[8] = system: MDA-N
[9] = system: T-47D breast
[10] = system: DU-145 prostate
[11] = system: 786-0 renal

| SMILES | TGI [1] [µM] | TGI [2] [µM] | TGI [3] [µM] | TGI [4] [µM] | TGI [5] [µM] | TGI [6] [µM] | TGI [7] [µM] | TGI [8] [µM] | TGI [9] [µM] | TGI [10] [µM] | GI50 [9] [µM] | GI50 [10] [µM] | GI50 [1] [µM] | GI50 [2] [µM] | GI50 [3] [µM] | GI50 [4] [µM] | GI50 [5] [µM] | GI50 [6] [µM] | GI50 [7] [µM] | TGI [11] [µM] |
| --- | --- | --- | --- | --- | --- | --- | --- | --- | --- | --- | --- | --- | --- | --- | --- | --- | --- | --- | --- | --- |
| CN1COCN=C1NC#N | > 100 | > 100 | > 100 | > 100 | > 100 | > 100 | > 100 | – | – | – | – | – | – | – | – | – | – | – | – | – |
| CC(=O)c1c(-c2ccco2)c(C#N)c(=S)n(C2OC(CO)C(O)C(O)C2O)c1C (stereo not given) | > 100 | > 100 | > 100 | – | > 100 | – | > 100 | > 100 | > 100 | > 100 | – | – | – | – | – | – | – | – | – | – |
| O=C(NCc1cn(Cc2cccc(Oc3ccccc3)c2)nn1)c1cccnc1NCc1ccc(Cl)cc1 | 7.56 | 8.76 | > 100 | > 100 | > 100 | 7.95 | > 100 | – | 42.9 | > 100 | 3.2 | 4 | 2.96 | 3.28 | 9.03 | 4.44 | 5.62 | 2.12 | 2.95 | – |
| Cc1c(C(=O)O)sc2nc[nH]c(=O)c12 | > 100 | > 100 | > 100 | > 100 | > 100 | – | > 100 | – | > 100 | > 100 | – | – | – | – | – | – | – | – | – | > 100 |
| N/C(=N\N=C/c1c(O)cc(O)cc1O)NO | > 100 | > 100 | > 100 | > 100 | > 100 | > 100 | > 100 | – | – | – | – | – | – | – | – | – | – | – | – | – |
| CSCSCC(CO)NC(=O)/C=C\c1c(C)[nH]c(=O)[nH]c1=O (stereo not given) | 270 | 59.1 | 320 | 136 | 277 | 229 | 219 | – | – | – | – | – | – | – | – | – | – | – | – | – |
| CC12CC(c3ccccc3O1)C(C(=O)Nc1nccs1)C(=O)N2 (stereo not given) | > 100 | > 100 | > 100 | > 100 | > 100 | > 100 | > 100 | > 100 | – | > 100 | – | – | – | – | – | – | – | – | – | > 100 |
| COC(=O)C1CCC(=O)NCCCCC(NC(=O)C(N)CC(=O)O)C(=O)N1 (stereo not drawn) (H-Asp-Lys-Glu-OMe; lactam 2-3; configuration not given here) | > 100 | > 100 | > 100 | > 100 | > 100 | – | > 100 | > 100 | > 100 | > 100 | – | – | – | – | – | – | – | – | – | > 100 |
| CCOC(=O)c1c(SC(=O)c2ccc(Cl)cc2)n(-c2ccccc2)c(=S)n(-c2ccccc2)c1=O | > 100 | > 100 | > 100 | – | > 100 | > 100 | > 100 | > 100 | > 100 | > 100 | – | – | – | – | – | – | – | – | – | > 100 |
| COc1ccc(NCn2nc(CCCCCCCCc3nn(CNc4ccc(OC)cc4)c(=S)o3)oc2=S)cc1 | > 100 | > 100 | – | > 100 | > 100 | > 100 | > 100 | > 100 | – | > 100 | – | – | – | – | – | – | – | – | – | > 100 |
| Cc1ccc(N2Cc3c(ccc4ccccc34)OP2(=S)N2CCCC2)cc1 (stereo not given) | > 100 | > 100 | > 100 | > 100 | > 100 | > 100 | > 100 | – | – | – | – | – | – | – | – | – | – | – | – | – |
| O=C(Oc1cncc(Cl)c1)c1cc2ccccc2sc1=O | > 100 | 90 | > 100 | 90.7 | > 100 | – | > 100 | > 100 | > 100 | > 100 | – | – | – | – | – | – | – | – | – | > 100 |
| C#CC(O)/C=C/C(O)CCCC(O)CC#CC(O)C#CCCCCC(O)/C=C/CCCC(=O)CCCCCCCCCCCCCCCC(O)C(O)C#CC(=O)O (stereo not given) | > 25 | > 25 | > 25 | > 25 | > 25 | – | > 25 | > 25 | > 25 | > 25 | – | – | – | – | – | – | – | – | – | > 25 |
| CCOC(=O)C1=C(N2CCCC2)C(=O)C(C(=O)OCC)C1 (stereo not given) | – | > 100 | > 100 | > 100 | > 100 | > 100 | > 100 | > 100 | > 100 | – | – | – | – | – | – | – | – | – | – | > 100 |
| CN1Cc2ccccc2C2(COc3ccccc3C2=O)C1 (stereo not given) | > 100 | > 100 | > 100 | > 100 | > 100 | – | – | – | – | – | – | – | – | – | – | – | – | – | – | – |
| CC1(C)CC(=O)C2=C(C1)NC(=S)C(C#N)C2c1ccccc1 (stereo not given) | > 100 | – | > 100 | > 100 | > 100 | – | > 100 | > 100 | – | > 100 | – | – | – | – | – | – | – | – | – | > 100 |
| CC1(C)Cc2ccccc2C(C)(Cl)C(=O)N1 (stereo not given) | > 10 | > 10 | > 10 | – | > 10 | > 10 | > 10 | > 10 | > 10 | > 10 | – | – | – | – | – | – | – | – | – | > 10 |
| COc1ccc(-c2c(/C=N/OCC(=O)O)c3sc4ccccc4n3c2/C=N/OCC(=O)O)cc1 | > 50 | > 50 | > 50 | > 50 | > 50 | – | > 50 | > 50 | > 50 | > 50 | – | – | – | – | – | – | – | – | – | > 50 |
| C/C(N=NS(=O)(=O)c1c(C)cc(C)cc1C)=C1\C=CC=CN1O | > 100 | > 100 | > 100 | – | > 100 | > 100 | > 100 | – | – | – | – | – | – | – | – | – | – | – | – | > 100 |
| O=C(CCC(NC(=O)OCc1ccccc1)C(=O)OCc1ccccc1)Nc1cccc(OCc2ccccc2)c1 (stereo not given) | 70.9 | > 100 | 71.1 | – | > 100 | – | > 100 | > 100 | > 100 | 79.6 | – | – | – | – | – | – | – | – | – | 33.2 |
| COc1ccc(/C=C/C(=O)c2cc(CN(C)C)c(O)c(CN(C)C)c2)cc1 | > 100 | > 100 | > 100 | – | > 100 | 60.3 | > 100 | 67.1 | > 100 | > 100 | – | – | – | – | – | – | – | – | – | > 100 |
| Oc1c(NCn2nc(CCCCCCCCc3nn(CNc4ccc5ccccc5c4O)c(=S)o3)oc2=S)ccc2ccccc12 | > 100 | > 100 | > 100 | > 100 | > 100 | > 100 | > 100 | 48.5 | – | > 100 | – | – | – | – | – | – | – | – | – | > 100 |

— PubChem BioAssay (NCI)
